Reference: patent US9550811B2, “Peptide scaffold design” (BIONOR IMMUNO AS, priority 2010, dated 2017)
Where no end group is shown, it is not given here. [ ]: non-standard residue; d: D form. Cit = NC(=O)NCCC[C@H](N)C(=O)O

Experiments:
Experiment in all cases: REVEAL binding assay
Settings in all cases: score as percentage of the signal generated by the positive control peptide
HLA-B15 = test system: HLA-B15
From the text: (§2) HLA-A1, HLA-A2, HLA-A3, HLA-A11, HLA-A24, HLA-A29, HLA-B7, HLA-B8, HLA-B14, HLA-B15, HLA-B27, HLA-B35, HLA-B40.
(§3) The REVEAL™ binding assay determined the ability of each candidate peptide to bind to one or more MHC class I alleles and stabilizing the MHC-peptide complex. […] Detection is based on the presence or absence of the native conformation of the MHC-peptide complex. Each peptide is given a score relative to the positive control peptide, which is a known T cell epitope.

HLA-A24 = test system: HLA-A24
Method: (§4) Binding properties to HLA for the ninemers listed in table 6 were tested for the following HLA-classes:
as §2, §3

HLA-B14 = test system: HLA-B14
HLA-A1 = test system: HLA-A1
Method: as §4, §2, §3

HLA-B40 = test system: HLA-B40
Procedure, shortened: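 Peptide–MHC class I complex stability assay on nonamers. Output: quantitative % relative to high-affinity control epitope, with putative pass/fail designation.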

HLA-A29 = test system: HLA-A29
HLA-B8 = test system: HLA-B8
From the text: as §2, §3

HLA-B35 = test system: HLA-B35
HLA-B27 = HLA-B27 (Homo sapiens, UniProt P01889, D138H/D201E/E176V/E204Q/G107R/H137Y/K202T/N104T/N87E/Q56L/Q94K/R106L/R155S/R180L/S101D/S121N/S48T/Y140D/Y33H/Y91C)
Procedure, shortened: (§1)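 Synthetic nonamer peptides were tested for their ability to bind and stabilize MHC class I–peptide complexes, detected by the native conformation of the complex. Each peptide is scored relative to a positive-control known T-cell epitope.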

HLA-A2 = HLA-A2 (Homo sapiens, UniProt P04439, D140Y/D185E/D98H/E176V/E277Q/G131W/G231S/I119V/I121R/I166T/I218V/N151K/N90K/P208A/P217A/Q86G/Q94H/R138H/R169H)
Procedure, shortened: as §1

HLA-B7 = HLA-B7 (Homo sapiens, UniProt P01889)
Chain of HLA-B7 (P61769 21-119): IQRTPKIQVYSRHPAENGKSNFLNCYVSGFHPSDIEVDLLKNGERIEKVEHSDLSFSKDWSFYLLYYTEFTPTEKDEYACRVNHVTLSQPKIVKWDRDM
Chain of HLA-B7 (P01889 25-299): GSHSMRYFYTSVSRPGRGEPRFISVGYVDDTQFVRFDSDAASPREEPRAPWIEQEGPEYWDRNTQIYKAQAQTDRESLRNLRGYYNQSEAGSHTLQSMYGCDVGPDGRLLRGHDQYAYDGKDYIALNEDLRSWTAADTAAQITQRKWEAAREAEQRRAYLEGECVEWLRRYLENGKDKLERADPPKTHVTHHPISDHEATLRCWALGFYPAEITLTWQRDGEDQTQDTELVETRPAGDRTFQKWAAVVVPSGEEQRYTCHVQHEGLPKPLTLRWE
Procedure, shortened: as §1

HLA-A3 = HLA-A3 (Homo sapiens, UniProt P04439)
Chain of HLA-A3 (P04439 25-299): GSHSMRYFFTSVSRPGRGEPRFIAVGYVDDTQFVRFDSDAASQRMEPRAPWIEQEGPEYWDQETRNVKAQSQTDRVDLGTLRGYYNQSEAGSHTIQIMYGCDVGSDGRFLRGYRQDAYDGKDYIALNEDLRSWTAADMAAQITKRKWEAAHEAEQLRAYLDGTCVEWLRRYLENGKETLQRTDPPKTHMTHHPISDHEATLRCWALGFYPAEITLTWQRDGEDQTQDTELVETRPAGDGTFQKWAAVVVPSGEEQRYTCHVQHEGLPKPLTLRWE
Chain of HLA-A3 (P61769 21-119, further chain): as the sequence (P61769 21-119) above
Procedure, shortened: as §1

HLA-A11 = HLA-A11 (Homo sapiens, UniProt P04439, A114D/F33Y/S129P)
Procedure, shortened: as §1

Substance	REVEAL binding score, HLA-type B15 (HLA-B15) [%]	REVEAL binding score, HLA-type A24 (HLA-A24) [%]	REVEAL binding score, HLA-type B14 (HLA-B14) [%]	REVEAL binding score, HLA-type A1 (HLA-A1) [%]	REVEAL binding score, HLA-type B40 (HLA-B40) [%]	REVEAL binding score, HLA-type A29 (HLA-A29) [%]	REVEAL binding score, HLA-type B8 (HLA-B8) [%]	REVEAL binding score, HLA-type B35 (HLA-B35) [%]	REVEAL binding score, HLA-type B27 (HLA-B27) [%]	REVEAL binding score, HLA-type A2 (HLA-A2) [%]	REVEAL binding score, HLA-type B7 (HLA-B7) [%]	REVEAL binding score, HLA-type A3 (HLA-A3) [%]	REVEAL binding score, HLA-type A11 (HLA-A11) [%]
P[Cit]IGVRAT[Cit]	12.64	0.21	0.19	18.83	49.29	14.14	9.47	2.45	0.94	7.36	1.91	2.52	1.72
QIIGGNYLI	29.59	12.60	0.40	21.63	83.60	13.60	10.61	8.99	0.91	73.54	52.04	6.30	4.06
QIVGGVYLL	15.07	1.01	0.37	20.25	24.51	13.36	13.15	4.01	0.60	57.04	28.66	2.36	1.96
RALAHGVRV	11.84	0.84	0.46	20.77	70.26	29.73	18.08	6.07	6.37	8.69	2.55	2.51	4.45
RNLGKVIDT	11.79	1.04	0.61	18.90	48.14	10.18	13.80	4.40	2.73	6.42	2.42	3.15	6.22
RNLGRVIET	8.84	0.51	0.26	15.93	27.57	15.13	15.51	2.34	0.91	5.96	0.71	5.52	13.68
RVIAHGLRL	106.77	0.79	0.42	11.60	24.08	23.22	12.60	1.43	15.57	18.68	102.96	13.32	17.75
RVIETLTSG	37.99	0.96	0.11	11.61	32.30	15.52	11.83	1.90	2.32	9.82	0.50	2.23	3.25
SRNLGKVID	11.25	0.71	0.67	15.30	33.93	9.94	16.71	4.59	1.28	4.94	1.28	3.46	4.45
TFSIYLIVS	8.63	0.60	0.37	9.93	23.23	8.58	9.52	2.48	1.49	2.02	1.28	0.91	2.89
TGNIPGSTY	52.30	0.86	1.15	10.58	38.15	35.10	10.25	48.40	1.98	3.59	1.32	13.04	6.06
TGNLPGCSF	45.07	4.81	0.86	11.97	73.71	18.89	8.62	11.40	2.37	5.18	2.38	3.71	2.56
VARALAHGV	11.26	0.32	0.17	16.10	44.29	29.43	14.31	0.27	0.62	5.85	31.59	2.77	3.47
VGGVYLLPR	13.22	0.34	0.44	17.88	55.61	14.20	11.57	4.02	0.79	8.73	1.15	3.41	4.16
VIDTLTCGF	9.49	0.95	0.11	25.85	27.24	13.90	10.00	3.26	1.11	5.14	0.45	2.93	6.00
